Test results as given in US20240139333A1, “2,6-DICHLOROPHENYL ESTER COMPOUNDS AND USE THEREOF” (Fusion Pharmaceuticals Inc., priority 2021, published 2024).
Values belong to the molecule of their own block, whether it stands above or below them.

Experiments:
[1] = Comparative active ester reactivity study with HOPO nucleophile; conditions: 1,2-HOPO 1 eq., 22±2° C.
Method: (§1) General Experimental Protocol for Comparative Active Ester Reactivity Study with HOPO or HOA Nucleophiles
(§2) To a 4 mL scintillation vial containing Compound A-E (in respective experiments; 1 eq.) was added a stir bar followed by 150 μL of HPLC grade acetonitrile. In another 4 mL scintillation vial containing a respective nucleophile (1 eq.) was added 280 μL HPLC grade water. The solutions were combined and allowed to stir at room temperature (22±2° C.) for 4 hours. Timed aliquots at time (T)=15, 30, 60, 120 and 240 minutes were taken and analyzed by HPLC-MS using elution method 1 (Table 1).

[2] = Comparative active ester reactivity study with HOA nucleophile (benzhydroxamic acid); conditions: Benzhydroxamic Acid 1 eq., 22±2° C.
Method: as §1, §2

[3] = Comparative active ester reactivity study with HOA nucleophile (N-hydroxy-N-methylbenzamide); conditions: N-Hydroxy-N-methylbenzamide 1 eq., 22±2° C.
Method: as §1, §2

[4] = Nucleophilic reactivity study with L-Lysine; conditions: L-Lysine 5 equiv
Method: General Experimental Protocol for Nucleophilic Reactivity Study with L-Lysine
To a 4 mL scintillation vial containing Compound A-E (in respective experiments; 1 eq.) was added a stir bar followed by 70 μL of HPLC grade acetonitrile. In another 4 mL scintillation vial containing L-Lysine monohydrochloride (5 eq.) was added 130 μL HPLC grade water followed by diisopropylethylamine (5 eq.). The solutions were combined and allowed to stir at room temperature (22±2° C.). Timed aliquots at time (T)=15, 30, 60 and 120 minutes were taken and analyzed by HPLC-MS using elution method 1 (Table 2).

[5] = pH stability study; assay type: physicochemical; conditions: 20° C.
Method: To a 4 mL scintillation vial containing Compound A-E (in respective experiments; 0.8 mg) was added 4 mL of either a pH 3, pH 5 pH 7 or pH 9 buffer to create a 0.2 mg/mL solution. 2 mL of this solution was added to a 2 mL HPLC vial and placed in the auto sampler of an HPLC-MS at 20° C. Timed aliquots at time (T)=15, 30, 60, 120, 240 and 480 minutes were taken and analyzed by HPLC-MS using elution method 1 (Table 3). […]
pH 3 Buffer: Citric acid/Na2HPO4 (79.45 mL 0.1 M-citric acid and 20.55 mL 0.2-Na2HPO4) pH 5 Buffer: Citric acid/Na2HPO4 (48.50 mL 0.1 M-citric acid and 51.50 mL 0.2-Na2HPO4) pH 7 Buffer: Citric acid/Na2HPO4 (17.65 mL 0.1 M-citric acid and 82.35 mL 0.2-Na2HPO4) pH 9 Buffer: Sodium Carbonate/Sodium Bicarbonate (10 mL 0.1 M-Na2CO3 and 90 mL 0.1-NaHCO3)

[6] = Temperature stability study in H2O; assay type: physicochemical
Method: 20° C.: To a 4 mL scintillation vial containing Compound A-E (in respective experiments; 0.8 mg) was added 4 mL of HPLC grade water to create a 0.2 mg/mL solution. 2 mL of this solution was added to a 2 mL HPLC vial and placed in the auto sampler of an HPLC-MS at 20° C. Timed aliquots at time (T)=15, 30, 60, 120, 240 and 480 minutes were taken and analyzed by HPLC-MS using elution method 1 (Table 4).
50° C.: To a 4 mL scintillation vial containing Compound A-E (in respective experiments; 0.8 mg) was added a stir bar followed by 4 mL of HPLC grade water to create a 0.2 mg/mL solution. The vial was capped and allowed to stir in a 50° C. oil bath for 8 hours. Timed aliquots at time (T) =15, 30, 60, 120, 240 and 480 minutes were taken and analyzed by HPLC-MS using elution method 1 (Table 4).

[7] = Active ester reactivity study with amino acids (Z-Ser-OH); conditions: Z-Ser-OH 1 eq., 22±2° C.
Method: (§3) General Experimental Protocol for Nucleophilic Reactivity Study with Amino Acids
as §2, with “A or C (1” for “A-E (in respective experiments; 1”, “70” for “150”, “amino acid (1-5” for “nucleophile (1”, “130” for “280”, “water followed by diisopropylethylamine (5 eq.).” for “water.”, “6).” for “1).”

[8] = Active ester reactivity study with amino acids (N-Acetyl-L-Cysteine); conditions: N-Acetyl-L-Cysteine 5 eq., 22±2° C.
Method: as §3
as §2, with “A or C (1” for “A-E (in respective experiments; 1”, “70” for “150”, “amino acid (1-5” for “nucleophile (1”, “130” for “280”, “water followed by diisopropylethylamine (5 eq.).” for “water.”, “6).” for “1).”

SMILES: O=C(CCc1cccnc1)Oc1c(Cl)cccc1Cl [Compound A, 2,6-Dichlorophenyl-3-(pyridin-3-yl)propanoate]
% Active Ester Remaining ([1]; 15 min): 99.32%
% Active Ester Remaining ([1]; 30 min): 98.56%
% Active Ester Remaining ([1]; 60 min): 96.90%
% Active Ester Remaining ([1]; 120 min): 95.51%
% Active Ester Remaining ([1]; 240 min): 93.74%
% Active Ester Remaining ([2]; 15 min): 97.05%
% Active Ester Remaining ([2]; 30 min): 95.97%
% Active Ester Remaining ([2]; 60 min): 92.36%
% Active Ester Remaining ([2]; 120 min): 86.65%
% Active Ester Remaining ([2]; 240 min): 78.07%
% Active Ester Remaining ([3]; 15 min): 99.57%
% Active Ester Remaining ([3]; 30 min): 99.24%
% Active Ester Remaining ([3]; 60 min): 98.36%
% Active Ester Remaining ([3]; 120 min): 96.11%
% Active Ester Remaining ([3]; 240 min): 92.22%
% Active Ester Remaining ([4]; 15 min, 22±2° C.): 60.44%
% Active Ester Remaining ([4]; 30 min, 22±2° C.): 26.31%
% Active Ester Remaining ([4]; 60 min, 22±2° C.): 0.98%
% Active Ester Remaining ([4]; 120 min, 22±2° C.): 0%
% Active Ester Remaining ([4]; DMAP 10 mol % added, 15 min): 0.86%
% Active Ester Remaining ([4]; DMAP 10 mol % added, 30 min): 0%
% Remaining ([5]; pH 3 buffer, 15 min): 100%
% Remaining ([5]; pH 3 buffer, 30 min): 100%
% Remaining ([5]; pH 3 buffer, 60 min): 100%
% Remaining ([5]; pH 3 buffer, 120 min): 100%
% Remaining ([5]; pH 3 buffer, 240 min): 100%
% Remaining ([5]; pH 3 buffer, 480 min): 100%
% Remaining ([5]; pH 5 buffer, 15 min): 100%
% Remaining ([5]; pH 5 buffer, 30 min): 100%
% Remaining ([5]; pH 5 buffer, 60 min): 100%
% Remaining ([5]; pH 5 buffer, 120 min): 100%
% Remaining ([5]; pH 5 buffer, 240 min): 100%
% Remaining ([5]; pH 5 buffer, 480 min): 100%
% Remaining ([5]; pH 7 buffer, 15 min): 100%
% Remaining ([5]; pH 7 buffer, 30 min): 100%
% Remaining ([5]; pH 7 buffer, 60 min): 100%
% Remaining ([5]; pH 7 buffer, 120 min): 99.35%
% Remaining ([5]; pH 7 buffer, 240 min): 98.75%
% Remaining ([5]; pH 7 buffer, 480 min): 97.82%
% Remaining ([5]; pH 9 buffer, 15 min): 98.15%
% Remaining ([5]; pH 9 buffer, 30 min): 95.27%
% Remaining ([5]; pH 9 buffer, 60 min): 92.61%
% Remaining ([5]; pH 9 buffer, 120 min): 87.81%
% Remaining ([5]; pH 9 buffer, 240 min): 79.28%
% Remaining ([5]; pH 9 buffer, 480 min): 61.56%
% Remaining ([6]; 20° C., 15 min): 100%
% Remaining ([6]; 20° C., 30 min): 100%
% Remaining ([6]; 20° C., 60 min): 100%
% Remaining ([6]; 20° C., 120 min): 100%
% Remaining ([6]; 20° C., 240 min): 100%
% Remaining ([6]; 20° C., 480 min): 100%
% Remaining ([6]; 50° C., 15 min): 96.12%
% Remaining ([6]; 50° C., 30 min): 92.86%
% Remaining ([6]; 50° C., 60 min): 88.94%
% Remaining ([6]; 50° C., 120 min): 84.24%
% Remaining ([6]; 50° C., 240 min): 82.50%
% Remaining ([6]; 50° C., 480 min): 81.87%
% Active Ester Remaining ([7]; 15 min): 97.56%
% Active Ester Remaining ([7]; 30 min): 97.14%
% Active Ester Remaining ([7]; 60 min): 96.30%
% Active Ester Remaining ([7]; 120 min): 93.35%
% Active Ester Remaining ([7]; 240 min): 91.55%
% Active Ester Remaining ([8]; 15 min): 100%
% Active Ester Remaining ([8]; 30 min): 99.86%
% Active Ester Remaining ([8]; 60 min): 99.84%
% Active Ester Remaining ([8]; 120 min): 99.70%
% Active Ester Remaining ([8]; 240 min): 82.52%

% Active Ester Remaining ([1]; 15 min): 40.02%
% Active Ester Remaining ([1]; 30 min): 17.81%
% Active Ester Remaining ([1]; 60 min): 9.78%
% Active Ester Remaining ([1]; 120 min): 5.19%
% Active Ester Remaining ([1]; 240 min): 0.94%
% Active Ester Remaining ([2]; 15 min): 58.86%
% Active Ester Remaining ([2]; 30 min): 45.60%
% Active Ester Remaining ([2]; 60 min): 32.39%
% Active Ester Remaining ([2]; 120 min): 18.88%
% Active Ester Remaining ([2]; 240 min): 9.26%
% Active Ester Remaining ([3]; 15 min): 81.12%
% Active Ester Remaining ([3]; 30 min): 72.43%
% Active Ester Remaining ([3]; 60 min): 61.68%
% Active Ester Remaining ([3]; 120 min): 50.09%
% Active Ester Remaining ([3]; 240 min): 37.80%
% Active Ester Remaining ([4]; 15 min, 22±2° C.): 0%
% Remaining ([5]; pH 3 buffer, 15 min): 98.19%
% Remaining ([5]; pH 3 buffer, 30 min): 93.92%
% Remaining ([5]; pH 3 buffer, 60 min): 89.61%
% Remaining ([5]; pH 3 buffer, 120 min): 82.13%
% Remaining ([5]; pH 3 buffer, 240 min): 68.98%
% Remaining ([5]; pH 3 buffer, 480 min): 48.46%
% Remaining ([5]; pH 5 buffer, 15 min): 96.06%
% Remaining ([5]; pH 5 buffer, 30 min): 86.91%
% Remaining ([5]; pH 5 buffer, 60 min): 79.07%
% Remaining ([5]; pH 5 buffer, 120 min): 65.20%
% Remaining ([5]; pH 5 buffer, 240 min): 45.26%
% Remaining ([5]; pH 5 buffer, 480 min): 20.20%
% Remaining ([5]; pH 7 buffer, 15 min): 94.61%
% Remaining ([5]; pH 7 buffer, 30 min): 83.82%
% Remaining ([5]; pH 7 buffer, 60 min): 73.25%
% Remaining ([5]; pH 7 buffer, 120 min): 54.53%
% Remaining ([5]; pH 7 buffer, 240 min): 27.99%
% Remaining ([5]; pH 7 buffer, 480 min): 5.60%
% Remaining ([5]; pH 9 buffer, 15 min): 7.60%
% Remaining ([5]; pH 9 buffer, 30 min): 1.71%
% Remaining ([5]; pH 9 buffer, 60 min): 0.49%
% Remaining ([5]; pH 9 buffer, 120 min): 0%
% Remaining ([6]; 20° C., 15 min): 95.77%
% Remaining ([6]; 20° C., 30 min): 91.82%
% Remaining ([6]; 20° C., 60 min): 87.38%
% Remaining ([6]; 20° C., 120 min): 81.04%
% Remaining ([6]; 20° C., 240 min): 70.85%
% Remaining ([6]; 20° C., 480 min): 56.62%
% Remaining ([6]; 50° C., 15 min): 79.21%
% Remaining ([6]; 50° C., 30 min): 74.51%
% Remaining ([6]; 50° C., 60 min): 65.73%
% Remaining ([6]; 50° C., 120 min): 42.50%
% Remaining ([6]; 50° C., 240 min): 6.78%
% Remaining ([6]; 50° C., 480 min): 2.35%
% Active Ester Remaining ([7]; 15 min): 41.75%
% Active Ester Remaining ([7]; 30 min): 28.90%
% Active Ester Remaining ([7]; 60 min): 10.96%
% Active Ester Remaining ([7]; 120 min): 2.89%
% Active Ester Remaining ([7]; 240 min): 0.12%
% Active Ester Remaining ([8]; 15 min): 95.12%
% Active Ester Remaining ([8]; 30 min): 91.95%
% Active Ester Remaining ([8]; 60 min): 85.25%
% Active Ester Remaining ([8]; 120 min): 56.62%
% Active Ester Remaining ([8]; 240 min): 0%
SMILES: O=C(CCc1cccnc1)Oc1c(F)c(F)cc(F)c1F [Compound C, 2,3,5,6-Tetrafluorophenyl-3-(pyridin-3-yl)propanoate]
